The source of these data is paper PMC10610379, “Epidrugs as Promising Tools to Eliminate Plasmodium falciparum Artemisinin-Resistant and Quiescent Parasites” (Pharmaceutics, 2023).

For orientation: IC50 means the concentration at which inhibition is half-maximal. One may read the CC50 as the concentration at which the toxic effect on the cells reaches its halfway point.

Several values for one entry are separate records, joined by “and”; a condition that tells them apart may be missing. Equal values may be shown once. Read-outs that look alike come from different tables or passages of the source. A value given as a limit tells only on which side of the number the result lay.

Data set [1] deals with Plasmodium falciparum F32-ART (artemisinin-resistant strain). Nature of the data set: Standard chemosensitivity assay (SYBR Green I), F32-ART. Type of data set: cell-based. Conditions: for IC50: read-out: Antiplasmodial Activity: IC50, F32-ART; for Selectivity Index CC50/IC50: ratio cytotoxicity (mammalian cell type of the CC50)/antiplasmodial activity on F32-ART. The procedure: (§1) They differ by eight mutations in seven genes (PF3D7_0110400, PF3D7_1343700, PF3D7_0213400, PF3D7_1115700, PF3D7_1302100, PF3D7_1459600, PF3D7_1464500) among them the M476I mutation on the kelch13 gene. F32-ART and F32-TEM strains have RSA^0–3 h values up to 12% and less than 0.1%, respectively. […] Both strains were cultured, in the same conditions, according to the Trager and Jensen protocol with modifications. Briefly, parasites were cultivated in RPMI-1640 medium (Biowest) at 2% hematocrit in human red blood cells and 5% human serum (EFS, French Blood Bank) under 5% CO2 in a humid atmosphere at 37 °C.
(§2) The antimalarial activities of the compounds were evaluated on both strains. […] Antimalarial activities were determined with the SYBR Green I method. Each drug concentration was tested in triplicate. The parasites were incubated with the drugs for 48 h. Plates were read on a BioTek FLX800 Microplate Fluorescence Reader (Bio-Tek instruments, Winooski, VT, USA) (λexcitation = 485 nm, λemission = 528 nm). Control parasite culture (i.e., RPMI with 0.5% DMSO) was referred to as 100% growth. IC50 and IC90 values were determined using GraphPad Prism version 7.05 (GraphPad Software, San Diego, CA, USA). Results were the mean of 3 independent experiments. When it is relevant, statistical significance between results obtained with both parasite strains was determined by a Mann–Whitney test using GraphPad Prism version 7.05.

Data set [2] relates to Plasmodium falciparum F32-TEM (artemisinin-sensitive twin line). Nature of the data set: Standard chemosensitivity assay (SYBR Green I), F32-TEM. Type of data set: cell-based. Particulars: read-out: Antiplasmodial Activity: IC50, F32-TEM. The procedure: as §1, §2
Data set [3] has as its system ART-resistant parasites F32-ART at the quiescent stage. Nature of the data set: Quiescent-stage Survival Assay (QSA), 48-h exposure. In kind it is cell-based, Plasmodium falciparum. How it is done:
The sensitivity of the ART-resistant parasites F32-ART at the quiescent stage towards the different molecules was determined using the QSA (Quiescent-stage Survival Assay), as previously described.
Epidrugs were tested at their IC90 values. In the present study, quiescence was induced using 3 µM of ART or 700 nM of DHA [28]. Thus, D-sorbitol synchronized ring-stage parasites at 3% parasitemia and 2% hematocrit (5 mL of culture per well in 6-well plates) were first exposed to 6 h of ART or DHA to induce quiescence and then to 48 h of the combination “ART or DHA + compound to be tested”. The combinations “ART 6 h/ART 48 h” or “DHA 6 h/DHA 48 h” were used as controls. The compounds were evaluated, in parallel, on proliferating parasites, i.e., without any pre-treatment. After drug exposure, parasite cultures were washed with 40 mL of RPMI-1640 medium and cultured in drug-free conditions supplemented with 10% human serum in new wells. The parasitemia for each condition was then microscopically monitored every 2 days. Culture media were renewed twice a week and 25 µL of fresh red blood cells were added once a week. Obtained data were used to perform Kaplan–Meier survival analyses considering censored data. The outcome was defined as the day when parasite cultures reached the initial parasitemia (3%) and data were considered as censored if no parasite recrudescence was observed during the 30-day experiment timeframe. When relevant, statistical significance between results obtained for the conditions “ART/ART” and “ART/ART + compound to be tested” or “DHA/DHA” and “DHA/DHA + compound to be tested” was determined by a Log Rank (Mantel Cox) test using GraphPad Prism version 7.05. For the best compounds targeting histones, in order to compare western blots data, modified QSAs were carried out by comparing “DHA 6 h/DHA 24 h” versus “DHA 6 h/DHA + compound to be tested 24 h”.

Data set [4] has as its system H3K4me1. Nature of the data set: Immunoblotting, histone mark abundance in F32-ART parasites. Type of data set: cell-based, Plasmodium falciparum. Particulars: 90nM. The procedure: (§3) Abundance of methylated and acetylated histone was determined in parasite cultures in different conditions: “not-treated”, “DHA 24 h”, “DHA 6 h/DHA 24 h” and “DHA 6 h/DHA + compound to be tested 24 h”. At the end of the treatments, parasite cultures were washed in RPMI-1640 and then twice in PBS 1× before red blood cell lysis with 0.075% saponin (Sigma-Aldrich) in PBS. Parasite ghosts were washed 3 times in PBS before incubating the ghosts with E1A lysis buffer (50 mM Hepes pH 7.5; 250 mM NaCl; 5 mM EDTA; 0.1% Triton X-100, 1 mM DTT, 0.2 mM PMSF supplemented with complete Mini EDTA-free protease inhibitor cocktail (Roche®, Basel, Switzerland)) for 15 min. Ghosts were then sonicated for 3 × 15s ON/OFF cycles to shear parasite membranes. Debris were pelleted by centrifuging for 15 min at 13,800× g and 4 °C, and supernatants (containing parasitic proteins) were then collected. Protein concentrations were determined using BCA assay (Bio-Rad, Hercules, CA, USA) according to the manufacturer’s instructions. For each sample, 10 µg of proteins were mixed with 4× sample buffer (10 mL 50% Glycerol, 5 mL 0.5 M Tris HCl pH 6.8, 4 mL 20% SDS, 0.02% Bromophenol blue for a total solution volume of 20 mL) and 100 mM DTT and then separated on 15% SDS-PAGE gels in Laemmli running buffer. Gels were then wet-transferred O/N at 20 V onto PVDF membranes. Membranes were blocked in TBST for 1 h at room temperature. Bottom parts were then probed with histone antibodies while upper parts were probed with PFALDOLASE antibody (Abcam, ab38905, Cambridge, UK) at 1:20,000 dilution. The following primary antibodies were used: anti-H3K4me1 (Abcam, ab8895); anti-H3K4me2 (Abcam, ab35356); anti-H3K9me2 (Abcam, ab1220); anti-H3K9me3 (Millipore, 07-442, Burlington, MA, USA); anti-tetra-acetyl H4 (Millipore, 06-866); anti-H4K8Ac (Millipore, 07-328); anti-H4K20me3 (Abcam, ab9053); anti-H3K4me3 (Diagenode) and anti-H3K9Ac (Millipore, 07-352) at 1:10,000. The following secondary antibodies were used: anti-rabbit IgG-Peroxidase produced in goat (Sigma-Aldrich) or anti-mouse IgG-Peroxidase (Sigma-Aldrich); at 1:20,000 dilutions. Blots were developed using ECL Prime Western Blotting (GE Healthcare, Chicago, IL, USA) and read on a Chemidoc touch imaging software. Densitometry analysis was performed by using ImageLab software from Bio-Rad. To determine if variations in histone abundances were statistically significant, immunoblotting experiments were performed on 3 biological replicates and each run was performed twice.
For orientation: Immunoblotting shows a protein as a band on a membrane.

In data set [5] the test system is H3K4me2. The description is as above. Type of data set: cell-based, Plasmodium falciparum. Particulars: 90nM. The procedure: as §3
The test system of data set [6] is H3K4me3. The data set is described as above. Type of data set: cell-based, Plasmodium falciparum. Conditions: 90nM. The procedure: as §3
The subject of data set [7] is H4K20me3. The data set is described as above. Particulars: 90nM. In kind it is cell-based, Plasmodium falciparum. The procedure:
as §3

Data set [8] concerns HFF. Particulars: read-out: Cytotoxicity: CC50 (HFF), data from literature ref 48; cited from earlier work.
The test system of data set [9] is MCF7. Conditions: cited from earlier work.
The mark [10] stands for this setting: Plasmodium falciparum, F32, 48 h.
Where [11] appears, read: 24 h, F32-ART ring stage proliferating, 3 replicates (Fig 3B).
Where [12] appears, read: DHA 6 h/DHA + BIX-01294 24 h, F32-ART DHA-treated parasites, 3 replicates (Fig 3F).

On to `COc1cc2nc(N3CCCN(C)CC3)nc(NC3CCN(Cc4ccccc4)CC3)c2cc1OC` [BIX-01294], for which the IC50 in data set [1] (setting [10]) turned out to be 0.056 ± 0.008 µM; in data set [2] (setting [10]) it was 0.055 ± 0.014 µM. Moreover, the “Selectivity Index CC50/IC50” value in data set [1] was determined as 110. Also, the “Delay in parasite recrudescence time (difference between median recrudescence times), ART/ART + compound vs ART/ART” value in [3] (quiescence induced with ART 3 µM 6 h, then 48 h ART + compound at its IC90) came to 8.5 days. Besides, the “Delay in recrudescence time, DHA/DHA + compound vs DHA/DHA” value in [3] (quiescence induced with DHA 700 nM 6 h, then 48 h DHA + compound at its IC90) was “slightly shorter delay”. The “Fold change of H3K4me1 abundance, BIX-01294 vs DMSO” value in data set [4] (setting [11]) is “significantly decreased level and 0.58 and 0.68 and 0.70”. Further, in [4] (setting [12]), the “Fold change of H3K4me1 abundance, BIX-01294, quiescent stage” value was “did not induce a quantifiable change and 1.47 and 1.13 and 0.70”. Also, the “Fold change of H3K4me2 abundance, BIX-01294 vs DMSO” value in [5] (setting [11]) is “significantly decreased level and 0.66 and 0.68 and 0.73”. For the same compound, the “Fold change of H3K4me2 abundance, BIX-01294, quiescent stage” value in [5] (setting [12]) is “did not induce a quantifiable change and 1.57 and 0.88 and 0.79”. Further, the “Fold change of H3K4me3 abundance, BIX-01294 vs DMSO” value in data set [6] (setting [11]) was “significantly decreased level and 0.89 and 0.88 and 0.80”. Also, the “Fold change of H3K4me3 abundance, BIX-01294, quiescent stage” value in data set [6] (setting [12]) is “did not induce a quantifiable change and 1.11 and 1.28 and 0.96”. Besides, the “Fold change of H4K20me3 abundance, BIX-01294 vs DMSO” value in data set [7] (setting [11]) is “significantly decreased level and 0.69 and 0.64 and 0.72”. For the same compound, the “Fold change of H4K20me3 abundance, BIX-01294, quiescent stage” value in data set [7] (setting [12]) was “did not induce a quantifiable change and 0.66 and 1.37 and 0.84”. The CC50 in data set [8] is 6.1 µM.
As to `O=C(CCCCCCC(=O)N[c-]1cccc1)NO.[Fe+2].c1cc[cH-]c1` [JAHA], the IC50 in data set [1] (F32-ART, 48 h incubation, SYBR Green I, mean ± SEM of 3 experiments (* mean of 2)) came to 0.46 ± 0.03 µM; in data set [2] (F32-TEM, 48 h incubation, SYBR Green I, mean ± SEM of 3 experiments (* mean of 2)) it was 0.69 ± 0.08 µM. The CC50 in [9] (MCF7 cancer, data from literature ref 42, read-out: Cytotoxicity: CC50 (MCF7 cancer)) was 2.4 µM.
For `COc1ccc(CN2CCc3ccc(C(=O)NO)cc32)cc1` [PCI 34051], the IC50 in data set [1] (Plasmodium falciparum, F32-ART, 48 h incubation, SYBR Green I, mean ± SEM of 3 experiments (* mean of 2)) was found to be 8 µM; in data set [2] (Plasmodium falciparum, F32-TEM, 48 h incubation, SYBR Green I, mean ± SEM of 3 experiments (* mean of 2)), 9 µM. Also, the “Selectivity Index CC50/IC50” value in [1] is listed as more than 2.5. Further, in data set [9] (MCF7, data from literature ref 45, read-out: Cytotoxicity: CC50 (MCF7)), the CC50 is more than 20 µM.
